Experimental data reported in ChEMBL document CHEMBL1127032, “(Dipropylphenoxy)phenylacetic acids: a new generation of nonpeptide angiotensin II receptor antagonists” (J Med Chem, 1993).

Experiments:
[1] = molecular target: T1, Type-1 angiotensin II receptor (Oryctolagus cuniculus, UniProt P34976); assay: Displacement of […][Sar1,IIe8]AII from rabbit aorta Angiotensin II receptor, type 1; assay type: tissue-based
T1 sequence (P34976 whole entry): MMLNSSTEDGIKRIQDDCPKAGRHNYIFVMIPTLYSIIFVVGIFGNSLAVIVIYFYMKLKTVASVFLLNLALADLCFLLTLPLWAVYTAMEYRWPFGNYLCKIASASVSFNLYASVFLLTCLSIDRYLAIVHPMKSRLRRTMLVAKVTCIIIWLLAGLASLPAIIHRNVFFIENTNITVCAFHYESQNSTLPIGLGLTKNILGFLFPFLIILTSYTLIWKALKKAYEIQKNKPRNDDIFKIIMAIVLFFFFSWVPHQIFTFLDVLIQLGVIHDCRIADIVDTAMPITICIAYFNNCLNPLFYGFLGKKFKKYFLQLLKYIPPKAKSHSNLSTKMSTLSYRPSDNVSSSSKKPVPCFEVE

[2] = molecular target: T2, Type-2 angiotensin II receptor (Rattus norvegicus, UniProt P35351); assay: Displacement of […][Sar1,IIe8]AII from rat midbrain angiotensin II (AT2) receptor
T2 sequence (P35351 whole entry): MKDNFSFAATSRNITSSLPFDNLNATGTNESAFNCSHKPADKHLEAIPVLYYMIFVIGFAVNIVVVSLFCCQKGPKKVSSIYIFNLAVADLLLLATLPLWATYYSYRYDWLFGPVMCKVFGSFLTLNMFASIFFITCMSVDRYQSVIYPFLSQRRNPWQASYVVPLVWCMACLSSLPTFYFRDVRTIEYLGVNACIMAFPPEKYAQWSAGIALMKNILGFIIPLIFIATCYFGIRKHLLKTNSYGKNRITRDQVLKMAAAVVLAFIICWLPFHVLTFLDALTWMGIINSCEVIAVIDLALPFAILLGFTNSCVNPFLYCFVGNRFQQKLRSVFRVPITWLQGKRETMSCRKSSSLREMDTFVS

| SMILES | IC50 [1] | IC50 [2] |
| --- | --- | --- |
| CCCc1cc(Cn2c(CC)nc3c(C)cc(C)nc32)cc(CCC)c1OC(C(=O)O)c1cccc(Cl)c1 (stereo not drawn) | 0.75 nM | 2300 nM |
| CCCc1cc(Cn2c(CC)nc3c(C)cc(C)nc32)cc(CCC)c1OC(C(=O)O)c1ccc(C)cc1 (stereo not drawn) | 4 nM | 400 nM |
| CCCc1cc(Cn2c(CC)nc3c(C)cc(C)nc32)cc(CCC)c1OC(C(=O)O)c1cccc(-c2ccccc2)c1 (stereo not drawn) | 6.8 nM | 740 nM |
| CCCc1cc(Cn2c(CC)nc3c(C)cc(C)nc32)cc(CCC)c1OC(C(=O)O)c1ccc(CC)cc1 (stereo not drawn) | 19 nM | 240 nM |
| CCCc1cc(Cn2c(CC)nc3c(C)cc(C)nc32)cc(CCC)c1OC(C(=O)O)c1ccccc1Cl (stereo not drawn) | 0.53 nM | 3500 nM |
| CCCc1cc(Cn2c(CC)nc3c(C)cc(C)nc32)cc(CCC)c1OC(C(=O)O)c1ccccc1C (stereo not drawn) | 1.2 nM | 7500 nM |
| CCCc1cc(Cn2c(CC)nc3c(C)cc(C)nc32)cc(CCC)c1OC(C(=O)O)c1ccc(Oc2ccccc2)cc1 (stereo not drawn) | 5.2 nM | 1900 nM |
| CCCc1cc(Cn2c(CC)nc3c(C)cc(C)nc32)cc(CCC)c1OC(C(=O)O)c1cccc(Oc2ccccc2)c1 (stereo not drawn) | 0.47 nM | 1600 nM |
| CCCc1cc(Cn2c(CC)nc3c(C)cc(C)nc32)cc(CCC)c1OC(C(=O)O)c1ccccc1 (stereo not drawn) | 0.9 nM | 2600 nM |
| CCCc1cc(Cn2c(CC)nc3c(C)cc(C)nc32)cc(CCC)c1OC(C(=O)O)c1ccc(Cl)cc1 (stereo not drawn) | 2.8 nM | 450 nM |
| CCc1nc2c(C)cc(C)nc2n1Cc1ccc(-c2ccccc2-c2nnn[nH]2)cc1 [L-158809] | – | > 10000 nM |
| CCCc1cc(Cn2c(CC)nc3c(C)cc(C)nc32)cc(CCC)c1OC(C(=O)O)c1cccc(C)c1 (stereo not drawn) | 0.74 nM | 800 nM |
